Data: article PMC10413337 (RSC Advances, 2023)

Assays:
[1] = test system: normal lung fibroblast WI-38; assay: MTT cytotoxicity evaluation, normal WI-38; type: cell-based; settings: Homo sapiens, WI-38, read-out: IC50 (μM ± SD) WI-38
breast MCF-7 = assay: MTT cytotoxicity evaluation, MCF-7; settings: for IC50: Homo sapiens, MCF7, read-out: IC50 (μM ± SD) MCF-7
colon carcinoma Caco2 = assay: MTT cytotoxicity evaluation, Caco2; type: cell-based; settings: Homo sapiens, Caco-2, read-out: IC50 (μM ± SD) Caco2
hepatic carcinoma HepG-2 = assay: MTT cytotoxicity evaluation, HepG-2; type: cell-based; settings: Homo sapiens, HepG2, read-out: IC50 (μM ± SD) HepG-2
HepG-2, Caco2, and MCF-7 = assay: MTT cytotoxicity, statements over the three cancer cell lines; type: cell-based, human; settings: 9c versus 3

For `CCOC(=O)c1sc(NN=C(C)c2nn(-c3ccc(S(N)(=O)=O)cc3)c(=N)s2)nc1C` [Compound 7, Ethyl-2-(2-(1-(5-imino-4-(4-sulfamoylphenyl)-4,5-dihydro-1,3,4-thiadiazol-2-yl)ethylidene)hydrazineyl)-4-methylthiazole-5-carboxylate], the IC50 [1] was 42.9 ± 2.2 µM, the IC50 (breast MCF-7) was 12.6 ± 0.6 µM and the IC50 (colon carcinoma Caco2) was 7.39 ± 0.4 µM. For the same molecule, the IC50 (hepatic carcinoma HepG-2) was 19.6 ± 1.1 µM.
`C=CCNC(=S)NN=C(C)c1nn(-c2ccc(S(N)(=O)=O)cc2)c(=N)s1` [Compound 9b, N-Allyl-2-(1-(5-imino-4-(4-sulfamoylphenyl)-4,5-di-hydro-1,3,4-thiadiazol-2-yl)ethylidene)hydrazine-1-carbothioamide] showed an IC50 [1] of 92.9 ± 4.8 µM, an IC50 (breast MCF-7) of 73 ± 3.3 µM and an IC50 (colon carcinoma Caco2) of 74.8 ± 3.7 µM. It also gave an IC50 (hepatic carcinoma HepG-2) of 149 ± 8.4 µM.
For `CC(=O)c1nn(-c2ccc(S(N)(=O)=O)cc2)c(=N)s1` [Compound 1, 5-acetyl-3-N-(4-sulfamoylphenyl)-2-imino-1,3,4-thiadiazoline], the IC50 [1] was 91.5 ± 4.7 µM, the IC50 (breast MCF-7) was 14.9 ± 0.7 µM and the IC50 (colon carcinoma Caco2) was 11.1 ± 0.6 µM. For the same molecule, the IC50 (hepatic carcinoma HepG-2) was 59.6 ± 3.4 µM.
Work on `CC(=NNc1nc(-c2ccccc2)cs1)c1nn(-c2ccc(S(N)(=O)=O)cc2)c(=N)s1` [Compound 4, 4-(2-Imino-5-(1-(2-(4-phenylthiazol-2-yl)hydrazineylidene)ethyl)-1,3,4-thiadiazol-3(2H)yl)benzenesulfonamide] yielded an IC50 [1] of 21.4 ± 1.1 µM, an IC50 (breast MCF-7) of 3.52 ± 0.2 µM and an IC50 (colon carcinoma Caco2) of 3.19 ± 0.2 µM. The IC50 (hepatic carcinoma HepG-2) was 0.5 ± 0.04 µM.
For `CC(=NNC1=NC(=O)CS1)c1nn(-c2ccc(S(N)(=O)=O)cc2)c(=N)s1` [Compound 8, 4-(2-Imino-5-(1-(2-(4-oxo-4,5-dihydrothiazol-2-yl)hydrazineylidene)ethyl)-1,3,4-thiadiazol-3(2H)-yl)benzenesulfonamide], the IC50 [1] was 22.9 ± 1.2 µM, the IC50 (breast MCF-7) was 27.2 ± 1.2 µM and the IC50 (colon carcinoma Caco2) was 5.31 ± 0.3 µM. It also gave an IC50 (hepatic carcinoma HepG-2) of 11.3 ± 0.6 µM.
`C=CCn1c(-c2ccccc2)csc1=NN=C(C)c1nn(-c2ccc(S(N)(=O)=O)cc2)c(=N)s1` [Compound 12b, 4-(5-(1-((3-Allyl-4-phenylthiazol-2(3H)-ylidene)hydrazono)ethyl)-2-imino-1,3,4-thiadiazol-3(2H)-yl)benzenesulfonamide] gave an IC50 [1] of 63.5 ± 3.9 µM, an IC50 (breast MCF-7) of 15.1 ± 0.7 µM and an IC50 (colon carcinoma Caco2) of 25.5 ± 1.3 µM. For the same molecule, the IC50 (hepatic carcinoma HepG-2) was 17.5 ± 1.5 µM.
`CC(=NNC(N)=S)c1nn(-c2ccc(S(N)(=O)=O)cc2)c(=N)s1` [Compound 3, 2-(1-(5-imino-4-(4-sulfamoylphenyl)-4,5-dihydro-1,3,4-thiadiazol-2-yl)ethylidene)hydrazine-1-carbothioamide] was tested, and the IC50 [1] was 44.4 ± 2.3 µM, the IC50 (breast MCF-7) was 6.38 ± 0.3 µM and the “improvement of the cytotoxic effect, times” value (breast MCF-7; thiosemicarbazone 3 versus acetyl derivative 1, MCF-7) was 2.5 times. It also gave an IC50 (colon carcinoma Caco2) of 14.9 ± 0.7 µM and an IC50 (hepatic carcinoma HepG-2) of 4.57 ± 0.3 µM.
Molecule `CC(=NNC(=S)Nc1ccc(Cl)cc1)c1nn(-c2ccc(S(N)(=O)=O)cc2)c(=N)s1` [Compound 9d, N-(4-Chlorophenyl)-2-(1-(5-imino-4-(4-sulfamoylphenyl)-4,5-dihydro-1,3,4-thiadiazol-2-yl)-ethylidene)hydrazine-1-carbothioamide] has an IC50 [1] of 60.7 ± 3.1 µM, an IC50 (breast MCF-7) of 42.6 ± 1.8 µM and an IC50 (colon carcinoma Caco2) of 98.7 ± 4.9 µM. It also gave an IC50 (hepatic carcinoma HepG-2) of 153 ± 8.6 µM.
For `CC(=NNC(=S)Nc1ccccc1)c1nn(-c2ccc(S(N)(=O)=O)cc2)c(=N)s1` [Compound 9c, 2-(1-(5-imino-4-(4-sulfamoylphenyl)-4,5-di-hydro-1,3,4-thiadiazol-2-yl)ethylidene)-N-phenylhydrazine-1-carbothioamide], the IC50 [1] was 28.5 ± 1.5 µM, the IC50 (breast MCF-7) was 21.1 ± 0.9 µM and the “drop in cytotoxicity, times” value (HepG-2, Caco2, and MCF-7) was 10 times. The IC50 (colon carcinoma Caco2) was 34.7 ± 1.7 µM and the IC50 (hepatic carcinoma HepG-2) was 37.1 ± 2.1 µM.
In the case of `CC(=NN=c1scc(-c2ccccc2)n1-c1ccc(Cl)cc1)c1nn(-c2ccc(S(N)(=O)=O)cc2)c(=N)s1` [Compound 12d, 4-(5-(1-((3-(4-Chlorophenyl)-4-phenylthiazol-2(3H)-ylidene)hydrazono)ethyl)-2-imino-1,3,4-thiadiazol-3(2H)-yl)benzenesulfonamide], the IC50 [1] is reported as 46.6 ± 2.4 µM, the IC50 (breast MCF-7) is reported as 3.79 ± 0.2 µM and the IC50 (colon carcinoma Caco2) is reported as 1.06 ± 0.1 µM. For the same molecule, the IC50 (hepatic carcinoma HepG-2) was 4.26 ± 0.2 µM.
With `CC(=O)c1sc(NN=C(C)c2nn(-c3ccc(S(N)(=O)=O)cc3)c(=N)s2)nc1C` [Compound 6, 4-(5-(1-(2-(5-Acetyl-4-methylthiazol-2-yl)hydrazineylidene)ethyl)-2-imino-1,3,4-thiadiazol-3(2H)-yl)benzenesulfonamide] the IC50 [1] was 110 ± 5.7 µM, the IC50 (breast MCF-7) was 21.2 ± 1.2 µM and the IC50 (colon carcinoma Caco2) was 33.8 ± 1.7 µM. The IC50 (hepatic carcinoma HepG-2) was 32.9 ± 1.9 µM.
`CNC(=S)NN=C(C)c1nn(-c2ccc(S(N)(=O)=O)cc2)c(=N)s1` [Compound 9a, 2-(1-(5-Imino-4-(4-sulfamoylphenyl)-4,5-dihydro-1,3,4-thiadiazol-2-yl)ethylidene)-N-methylhydrazine-1-carbothioamide] gave an IC50 [1] of 18.4 ± 1.7 µM, an IC50 (breast MCF-7) of 1.12 ± 0.1 µM and an IC50 (colon carcinoma Caco2) of 1.01 ± 0.1 µM. The IC50 (hepatic carcinoma HepG-2) was 0.53 ± 0.01 µM.
